In PubChem BioAssay (NCI):
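How tested: cells in 96-well plates exposed to compound for 48 hours at five concentrations. GI50: concentration for 50% inhibition of growth. Definition used: TGI = concentration required for complete inhibition of growth.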

How the values were obtained:
Assay in all cases: inhibition of tumour cell growth, NCI panel, 48 h
HT29 colon = system: HT29 colon
KM12 colon = system: KM12 colon
LOX IMVI melanoma = system: LOX IMVI melanoma
MDA-MB-231 breast = system: MDA-MB-231 breast
OVCAR-3 ovarian = system: OVCAR-3 ovarian
SK-OV-3 ovarian = system: SK-OV-3 ovarian
SNB-19 CNS = system: SNB-19 CNS
UACC-257 melanoma = system: UACC-257 melanoma
UACC-62 melanoma = system: UACC-62 melanoma
PC-3 prostate = system: PC-3 prostate

Structure (SMILES)	GI50 (HT29 colon) [µM]	TGI (HT29 colon) [µM]	GI50 (KM12 colon) [µM]	TGI (KM12 colon) [µM]	GI50 (LOX IMVI melanoma) [µM]	TGI (LOX IMVI melanoma) [µM]	GI50 (MDA-MB-231 breast) [µM]	TGI (MDA-MB-231 breast) [µM]	GI50 (OVCAR-3 ovarian) [µM]	TGI (OVCAR-3 ovarian) [µM]	GI50 (SK-OV-3 ovarian) [µM]	TGI (SK-OV-3 ovarian) [µM]	GI50 (SNB-19 CNS) [µM]	TGI (SNB-19 CNS) [µM]	GI50 (UACC-257 melanoma) [µM]	TGI (UACC-257 melanoma) [µM]	GI50 (UACC-62 melanoma) [µM]	TGI (UACC-62 melanoma) [µM]	GI50 (PC-3 prostate) [µM]	TGI (PC-3 prostate) [µM]
Cc1ccccc1C[P+](c1ccccc1)(c1ccccc1)c1ccccc1	0.849	14.8	0.804	11	1.09	> 100	2.04	> 100	1	> 100	1.64	9.27	2.07	> 100	0.371	4.65	0.757	31.6		
COc1cc(/C=C2\Cc3ccccc3C2=O)cc(OC)c1OC		> 100		> 100		> 100				> 100		> 100		> 100		> 100		> 100		
C/C(=N\NS(=O)(=O)c1c(C)cc(C)cc1C)c1ccc[n+]([O-])n1		36		> 100						25.3		> 100		> 100		22.7		31.5		
C=C1C(=O)O[C@H]2[C@H]1CC/C(Cn1cc(-c3ccsc3)nn1)=C\CC[C@@]1(C)O[C@@H]21	1.66	3.64	6.45	19.6	1.28	2.61	1.75	3.61	1.06	2.28	17.4	31.4	9.49	23.2					4.21	14.9
Fc1ccc2c(c1)cc1ccc3cccc4ccc2c1c34		> 100		> 100		> 100				> 100		> 100		> 100		> 100		> 100		
COc1ccc(NS(=O)(=O)c2ccc(N=C3C=C(Nc4ccc(S(=O)(=O)Nc5ccc(OC)nn5)cc4)C(=O)c4ccccc43)cc2)nn1		36.2		30.5		30.4				44.8		33.1		33.4		35.8		32.6		
COc1ccc2c(c1OC)C(C=C(c1ccccc1)c1ccccc1)CN(C)C2 (stereo unspecified)		42.7		48.9						59.9		> 100		> 100		54.8		40.2		
O=C(COC(=O)c1cccc2c(=O)c3ccccc3[nH]c12)Nc1ccc(S(=O)(=O)Nc2ncccn2)cc1		> 100		> 100		> 100				51.7		> 100		93.2		> 100		39.7		
CN=C(N)NC		> 100		> 100		> 100				> 100		> 100		> 100		> 100		> 100		
COc1ccc2c(c1)c(-c1ccc(-c3cn(C)c4ccc(OC)cc34)o1)cn2C	22	> 100	2.73	7.08	10.4	> 100	2.37	22.2	8.51	29.3	> 100	> 100	29.8	> 100	27	> 100	3.81	15.9		
